Measured values: PMC6501587 (The Journal of neuroscience : the official journal of the …, 2009)
Changes are numbered by the printed parent chain. Entries after “also recorded” stand apart in the source; their conditions may differ. Read-outs that look alike come from different tables or passages of the source.

Columns and labels:
[1] = system: P2X4/2a chimera; type: cell-based, rat; settings: oocytes
[2] = target: T1, P2X2aR (Rattus norvegicus, UniProt P49653); type: cell-based
T1 sequence (P49653 1-472): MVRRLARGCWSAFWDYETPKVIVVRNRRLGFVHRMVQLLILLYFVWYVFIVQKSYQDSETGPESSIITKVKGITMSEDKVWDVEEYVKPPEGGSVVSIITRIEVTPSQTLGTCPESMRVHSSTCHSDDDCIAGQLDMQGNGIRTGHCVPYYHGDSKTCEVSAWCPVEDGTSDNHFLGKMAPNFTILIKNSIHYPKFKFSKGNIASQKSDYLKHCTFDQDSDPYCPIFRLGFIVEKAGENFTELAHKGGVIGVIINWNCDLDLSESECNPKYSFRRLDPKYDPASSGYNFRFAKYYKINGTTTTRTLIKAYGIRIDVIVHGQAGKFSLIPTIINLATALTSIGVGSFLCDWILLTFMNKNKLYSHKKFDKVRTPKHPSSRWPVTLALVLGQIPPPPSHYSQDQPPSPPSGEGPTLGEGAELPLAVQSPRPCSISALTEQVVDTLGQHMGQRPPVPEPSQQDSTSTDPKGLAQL

[3] = target: T1, P2X2aR; assay: ATP-evoked currents, whole-cell patch clamp, HEK293 cells expressing P2X2aR; type: cell-based
[4] = target: T2, P2X2bR (Rattus norvegicus, UniProt P49653, DEL370-438); type: cell-based; settings: HEK293 cells
T2 sequence (P49653 with tags, fused parts or gaps DEL370-438): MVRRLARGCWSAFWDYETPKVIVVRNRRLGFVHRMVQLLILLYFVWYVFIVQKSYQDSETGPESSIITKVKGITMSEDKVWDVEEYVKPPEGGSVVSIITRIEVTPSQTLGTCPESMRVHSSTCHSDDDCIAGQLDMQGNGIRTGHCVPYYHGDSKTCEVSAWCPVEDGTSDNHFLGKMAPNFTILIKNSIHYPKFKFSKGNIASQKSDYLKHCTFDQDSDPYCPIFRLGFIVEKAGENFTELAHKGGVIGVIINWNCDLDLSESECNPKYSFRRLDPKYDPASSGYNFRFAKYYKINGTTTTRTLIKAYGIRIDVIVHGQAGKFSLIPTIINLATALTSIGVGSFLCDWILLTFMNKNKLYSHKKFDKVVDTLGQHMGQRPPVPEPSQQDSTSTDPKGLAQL

[5] = target: T3, P2X2a-C430S (Rattus norvegicus, UniProt P49653, C430S); type: cell-based
T3 sequence (P49653 1-472 C430S): T1 sequence (P49653 1-472) with C430S

[6] = target: T4, P2X4R (Rattus norvegicus, UniProt P51577); type: cell-based; settings: oocytes
T4 sequence (P51577 1-388): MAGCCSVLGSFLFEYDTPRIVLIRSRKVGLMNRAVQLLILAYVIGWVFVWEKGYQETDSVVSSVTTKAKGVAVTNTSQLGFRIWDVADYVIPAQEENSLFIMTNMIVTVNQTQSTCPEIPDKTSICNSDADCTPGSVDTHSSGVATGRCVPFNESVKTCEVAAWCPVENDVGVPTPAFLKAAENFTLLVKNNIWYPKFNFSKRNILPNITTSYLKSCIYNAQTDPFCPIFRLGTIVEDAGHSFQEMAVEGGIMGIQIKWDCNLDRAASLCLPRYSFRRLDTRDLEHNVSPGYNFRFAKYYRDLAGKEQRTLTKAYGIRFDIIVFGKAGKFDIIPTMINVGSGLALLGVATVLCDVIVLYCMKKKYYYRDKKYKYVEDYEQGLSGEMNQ

[7] = target: T5, P2X2a-C430A (Rattus norvegicus, UniProt P49653, C430A); type: cell-based; settings: oocytes
T5 sequence (P49653 1-472 C430A): T1 sequence (P49653 1-472) with C430A

[8] = system: P2X4/2b chimera; type: cell-based, rat; settings: oocytes
[9] = target: T3, P2X2a-C430S; type: cell-based; settings: HEK293 cells
[10] = target: T2, P2X2bR; type: cell-based; settings: oocytes
[11] = system: oocytes and HEK293 cells
[12] = system: P2X2R; settings: after application; ref Mason et al. (2004); cited from earlier work
[13] = system: P2X4/2a-C430A chimera; settings: oocytes; supplemental Fig. 3

Compound: OO [H2O2, hydrogen peroxide]
- increase of the currents ([1]; 1 mM H2O2): 1.9 ± 0.2 fold
- currents remaining increased after washout ([1]; 10 min washout after 1 mM H2O2): 0.3 ± 0.1 fold
- increase of ATP-gated currents ([2]; 0.3 mM H2O2, ATP ~EC15, oocytes): 2.8 ± 0.3 fold
- increase of ATP-evoked currents ([3]; 1 mM H2O2, ATP ~EC15): 1.9 ± 0.3 fold
- sensitivity to H2O2 ([4]; 1 mM): completely resistant
- sensitivity to H2O2 ([5]; oocytes): totally resistant
- inhibition of receptor activity ([6]; 1 mM H2O2): 43.8 ± 0.1%
- sensitivity to H2O2 [7]: totally resistant
- sensitivity to H2O2 [8]: totally resistant
- sensitivity to H2O2 ([9]; 1 mM): completely resistant
- sensitivity to H2O2 [10]: totally resistant
- effect of concentrations larger than 1 mM on cells [11]: cell damage and membrane dissolution

Compound: CO/C(=C/C(N)=O)[C@H](C)[C@H](/C=C/c1csc(-c2csc([C@@H](C)/C=C/C=C/C(C)C)n2)n1)OC [myxothiazol]
- effect on P2X2R-mediated currents [12]: transient increase followed by sustained inhibition
- effect of higher concentrations on receptor activity (biphasic) ([2]; higher concentrations, data not shown, expression system not given): inhibited the receptor activity
- maximal potentiation of ATP-evoked currents ([2]; myxothiazol applied 10 min prior to ATP, oocytes): 1.95 ± 0.18 fold
- increase of ATP-evoked currents ([3]; 100 nM myxothiazol, 3 μM ATP): 1.95 ± 0.14 fold
- sensitivity to myxothiazol [4]: insensitive
- sensitivity to myxothiazol [10]: insensitive

Compound: C=C(C)[C@H]1Cc2c(ccc3c2O[C@@H]2COc4cc(OC)c(OC)cc4[C@@H]2C3=O)O1 [rotenone]
- effect on P2X2R-mediated currents [12]: transient increase followed by sustained inhibition
- fold-increase of the ATP-evoked currents ([2]; 600 nM rotenone, 10 min prior to ATP, oocytes): 1.75 ± 0.38 fold
- fold-increase of the ATP-evoked currents ([3]; 600 nM rotenone): 1.52 ± 0.08 fold
- potentiation by rotenone ([4]; 600 nM): not observed
- potentiation by rotenone ([10]; 600 nM): not observed

Compound: mercury
- effect on maximal ATP response ([1]; 10 μM mercury): without significantly altering
- potentiation of 1 μM ATP-induced current ([1]; 10 μM metal, 1 μM ATP): 3.7 ± 0.8 fold
- 10–90% deactivation time ([1]; in the presence of mercury): 104.7 ± 11.5 s
- increase of 10–90% deactivation time ([1]; in the presence of mercury): 9 fold
- sensitivity to mercury [1]: mercury-sensitive; also recorded: residual mercury-dependent potentiation
- effect on the ATP-gated current ([2]; 10 μM metal pre-applied 1 min and co-applied with 30 μM ATP, oocytes): potentiated
- potentiation of ATP-evoked currents ([2]; 10 μM metal, 1 min prior and during ATP (~EC15), oocytes): 12.3 ± 2.6 fold
- potentiation of response still present after washout ([2]; 20 min after washout of 10 μM metal, oocytes): 35 ± 12%
- reversibility of effect on peak current amplitude ([2]; after 10 and 20 min washouts, oocytes): not completely reversible
- 10–90% deactivation time ([2]; in the presence of mercury, oocytes): 17.2 ± 2.8 s
- decrease in the current amplitude on prolonged washout of the metal ([2]; mercury-induced potentiation, wild type receptor): ~70%
- increase of ATP-evoked currents ([3]; 10 μM metal, ATP ~EC15): 5.9 ± 1.3 fold
- increase of ATP-gated currents ([4]; 10 μM metal, ATP ~EC15): 2.5 ± 0.5 fold
- potentiation of ATP-evoked currents ([5]; 10 μM mercury, ATP ~EC15, oocytes): 2.2 ± 0.9 fold
- reversibility of effect ([5]; mercury): easily reversible
- sensitivity to mercury ([5]; oocytes, supplemental Fig. 3): residual mercury-dependent potentiation
- effect on ATP-induced currents ([6]; 10 μM metal pre-applied 1 min and co-applied with 10 μM ATP): inhibited
- washout time to attain control currents ([6]; after 10 μM metal): 20 to 30 min
- potentiation of ATP-evoked currents ([7]; 10 μM mercury, ATP ~EC15): 3.3 ± 0.7 fold
- reversibility of effect ([7]; mercury): totally reversible; also recorded: easily reversible
- sensitivity to mercury ([7]; supplemental Fig. 3): residual mercury-dependent potentiation
- effect on ATP concentration-response curve ([8]; 10 μM mercury): did not displace
- effect on receptor deactivation ([8]; 10 μM mercury): nor modified receptor deactivation
- effect on receptor deactivation ([8]; 10 μM mercury, listed as Mercury): not significantly affected
- sensitivity to mercury ([8]; 10 μM): mercury resistant; also recorded: insensitivity
- increase of ATP-gated currents ([9]; 10 μM metal, ATP ~EC15): 1.9 ± 0.2 fold
- effect on rate of deactivation ([10]; mercury): not significantly affected
- sensitivity to mercury ([10]; supplemental Fig. 3): residual mercury-dependent potentiation
- sensitivity to mercury [13]: insensitivity
